Measurements from US20210246140A1, “MODULATORS OF METABOTROPIC GLUTAMATE RECEPTOR 2” (The General Hospital Corporation, priority 2020, published 2021).

Legend:
[1] = Solution stability in aqueous buffers at different pH; type: physicochemical; conditions: buffer solutions at pH 5.0, 7.4 and 9.4, 37° C., 2 h
Protocol: The solution stability of 3 was examined in the aqueous buffers at different pH values. 50 μL of compound in DMSO (0.25 mM) was added to the sodium acetate-KCl—HCl buffer (950 μL, 20 mM, pH 5.0), phosphate buffer (950 μL, 20 mM, pH 7.4), and boric acid-KCl—NaOH buffer (950 μL, 20 mM, pH 9.4), respectively. The mixtures were incubated for 2 h at 37° C. and analyzed by HPLC (Phenomenex Luna® column, 5 μm C18, 100 Å, 250×4.6 mm, eluents: CH3CN/H2O in 0.1% formic acid).
The in vitro plasma and liver microsomal stability of 1 and 2 were studied by incubating the test compounds in rat serum and rat liver microsomes as well as NADPH cofactor, respectively, using previously published methods [see refs. 57, 58]. Diltiazem and ML128 (a mGluR4 PAM) [see refs. 59, 60] were used as co-assay QC controls for plasma and microsomal stability assays, respectively, to ensure that the assays were operating properly, and that the activity of the plasma and microsomes were consistent with established criteria. […] The solution stability of 1 was evaluated with buffer solutions at pH 5.0, 7.4 and 9.4, respectively (FIGS. 10 and 20) [see refs. 61].

mGluR2 = molecular target: T1, mGluR2 (Homo sapiens, UniProt Q14416); conditions: calcium flux, Gα15 or Gα16 forced coupling; read-out: previously reported mGluR2 EC50; cited from earlier work
T1 construct: expressed in transfected cells

[2] = Plasma stability in rat serum; type: in vitro ADME; conditions: 37° C., diltiazem as positive control
Protocol: Compound stability in rat serum was examined using a published method. [See ref. 57] Rat serum (100 μL, Abeam, Inc, No. ab7488) and test compound or control compound (2.5 μL, 1 mM in DMSO) was added to the individual tube. The tube was vortexed and incubated at 37° C. During the incubation, aliquots of 50 μL samples were quenched with ice-cold acetonitrile at 0, 15, 30, 60, and 120 min time points, respectively. After mixing, the quenched samples were centrifuged, and the supernatant was withdrawn for analysis by HPLC (Agilent 1260 infinity II LC System, XTerra™ MS C18, 5μ, 2.1×250 mm, 20 mM ammonium formate (A)/acetonitrile (B), 0.25 mL/min, gradient of 5% to 100% B). The samples were assayed at least three times. Compound 1-OH was used as internal standard while diltiazem was used as a positive control. The percentage remaining was calculated by (peak area at the specific time point)/(peak area at 0 min)×100% (FIG. 7).
(§1) The in vitro plasma and liver microsomal stability of 1 and 2 were studied by incubating the test compounds in rat serum and rat liver microsomes as well as NADPH cofactor, respectively, using previously published methods [see refs. 57, 58]. […] The solution stability of 1 was evaluated with buffer solutions at pH 5.0, 7.4 and 9.4, respectively (FIGS. 10 and 20) [see refs. 61].

[3] = Microsomal stability in rat liver microsomes; type: in vitro ADME
Protocol: Compound stability in rat liver microsomal was tested using a published method. [see refs. 57, 58] In a vial 1.5 μL of test compound (1 mM in DMSO stock solution) was mixed with 432 μL of PBS (50 mM, pH 7.4). The mixture was kept at 37° C. for 10 min before adding 13 μL of Sprague-Dawley rat liver microsomes (Sigma-Aldrich, No. M9066). The vial was vortexed and shaken at 37° C. for 5 min, followed by addition of 50 μL of NADPH (10 mM in PBS stock solution) to start the reaction. The mixture was incubated at 37° C. for 0, 5, 15, 30, 45 min, respectively, and quenched by addition of 250 μL of ice-cold acetonitrile and 3 μL of the internal standard (0.5 mM in DMSO). The quenched solutions were centrifuged at 10,000 g for 15 min. The supernatant was collected and quantitated by RP-HPLC (Phenomenex Luna® column 5 μC18, 100 Å, 250×4.6 mm; 0.7 mL/min, 15 min, Acetonitrile/water/0.1% FA). The procedure was repeated three times for each compound. Compound 1-OH was used as internal standard and compound ML128 served as positive control. The percentage of remaining intact test-compound was calculated by (peak area at the specific time point)/(peak area at 0 min)×100%. Each procedure was repeated three times (FIGS. 8 and 9). For FIG. 8, the natural logarithm (In) of peak area ratio (test compound peak area/internal standard peak area) was plotted against time and the gradient of the line was determined. Subsequently, the half-life (t1/2) min was calculated as 0.693/k, where the elimination rate constant (k) equals to negative gradient. V (μL/mg) was obtained as a ratio of volume of incubation (μL)/protein in the incubation (mg). Finally, the intrinsic clearance (CLint) (μL/min/mg protein) was calculated as V×0.693/t1/2.
as §1

T1 sequence (Q14416 19-872): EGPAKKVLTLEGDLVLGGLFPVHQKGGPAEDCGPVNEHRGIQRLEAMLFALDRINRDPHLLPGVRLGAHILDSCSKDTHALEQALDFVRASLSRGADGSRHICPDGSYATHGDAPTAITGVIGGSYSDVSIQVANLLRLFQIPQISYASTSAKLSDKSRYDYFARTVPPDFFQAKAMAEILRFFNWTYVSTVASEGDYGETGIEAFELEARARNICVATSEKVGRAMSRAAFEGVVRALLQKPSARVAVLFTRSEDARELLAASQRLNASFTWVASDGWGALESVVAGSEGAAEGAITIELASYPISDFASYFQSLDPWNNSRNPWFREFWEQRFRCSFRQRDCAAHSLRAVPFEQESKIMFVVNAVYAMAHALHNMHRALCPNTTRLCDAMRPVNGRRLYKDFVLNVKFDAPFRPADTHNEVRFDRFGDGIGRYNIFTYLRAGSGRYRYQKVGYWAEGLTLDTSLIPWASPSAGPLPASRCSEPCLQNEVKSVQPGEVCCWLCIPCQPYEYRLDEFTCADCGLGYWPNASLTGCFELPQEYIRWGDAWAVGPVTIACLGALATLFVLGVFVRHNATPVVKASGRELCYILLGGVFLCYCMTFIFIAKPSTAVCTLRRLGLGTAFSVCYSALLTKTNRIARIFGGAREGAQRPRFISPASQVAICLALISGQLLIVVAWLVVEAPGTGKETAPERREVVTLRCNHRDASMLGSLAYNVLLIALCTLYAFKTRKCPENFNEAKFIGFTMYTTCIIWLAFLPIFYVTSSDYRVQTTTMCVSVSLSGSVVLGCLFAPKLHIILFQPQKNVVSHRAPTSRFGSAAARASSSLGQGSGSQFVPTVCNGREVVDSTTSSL

solution stability [1]: relatively stable
stability in rat plasma [2]: much more stable than diltiazem
microsomal CLint at 3 µM ([3]; Sprague-Dawley, pH 7.4, rat liver microsomes, read-out: intrinsic clearance CLint): 17.9 µL/min/mg
microsomal stability ([3]; rat liver microsomes with NADPH, ML128 as positive control): reasonable microsomal stability
Compound: COc1cc(C(F)(F)F)ccc1C1CCN(Cc2nc3ncccc3n2C)CC1 [Compound 1]
EC50 (mGluR2): 0.013 µM
